Where two headings read alike, the source gives them in different places. Marks after values point to notes of the source that are not given here.
Assays:
[1] = design: method as in earlier work; details: cited from earlier work; for AUC0–t / AUC0–∞ / Cmax / Tmax / t1/2: rat
[2] = Metabolic stability and formation of parent compound in rat liver microsomes; type: in vitro ADME; details: NADPH, 37 °C, up to 3 h
Protocol: Analysis was performed by using a Waters Alliance HPLC system (2695 pump, and 2489 PDA detector) with the following chromatographic parameters: wavelength, 278 nm; injection volume, 20 μL; run time, 20 min. The chromatographic separation was performed on an Phecda C18 (4.6 mm × 250 mm, 5 μm) column with a gradient elution of methanol and deionized water. Flow rate was 1.0 mL/min at 30 °C.
Rat liver microsomes were prepared in house by a previously published method and used immediately in the experiments. Protein concentrations were determined by a Lowry protein assay.
Rat liver microsomes (2.0 mg/mL protein concentration), NADPH (1.0 mM solution, Sigma, Shanghai, China), Tris-HCl buffer (50 mM, pH 7.4, Sigma, Shanghai, China), test compound in aqueous solution (30 mM, 20 μL).
Tris-HCl buffer (780 μL), 1.0 mM NADPH solution (100 μL), and 100 μL of rat liver microsomes were mixed and vortexed at 37 °C for 5 min. To this mixture, 30 mM drug in aqueous solution (20 μL) was injected and vortexed well. Sample (100 μL) was immediately taken out (0 min) and transferred to the centrifuge tube containing ice cold dissolvent (ethanol-ethyl acetate = 1:4 v/v, 1 mL). […] The percentage of prodrug remaining was calculated according to the following equation: % remaining = peak area at respective time (min)/peak area at 0 min × 100% (2)

[3] = test system: isolated Langendorff-perfused rat hearts; assay: Ex vivo Langendorff-perfused rat heart, cardiac performance; details: for ∆% +dP/dtmax / ∆% LVDP / ∆% −dP/dtmax: increase vs. control; for LVDP: isolated rat heart, mean ± SD, n = 6
Protocol: The cardiac contractility and safety of prodrugs 3–5 were evaluated on the myocardium in normal isolated rat hearts with LZDO as a positive control. Prodrugs 3–5 exerted positive inotropic effects in a dose-dependent manner. The increased rate in left ventricular developed pressure (LVDP, accepted as contractile force), +dP/dtmax (used as an index of contractility), the maximum rate of pressure decrease of the left ventricle ([…], used as an index of diastolic function) and the heart rate (HR, used as an index of heart muscle oxygen consumption) of these compounds vs. control are listed in Table 1.
All commercial reagents and solvents were used without further purification unless otherwise specified. Melting points were determined using a model Buchi B-450 apparatus. ESI-MS were recorded on a TOF mass spectrometer (Applies-Biosystem Mariner). IR spectra were acquired by using a THERMO IR spectrometer Model Nicolet-100. ^1H- and ^13C-NMR spectra (500/125 MHz) were recorded on a Bruker Advance 500 spectrophotometer. Mass spectra were recorded on a ZAB-HS mass spectrometer and are reported as m/z values. HPLC analysis was conducted on a Waters 2695 HPLC instrument equipped with a UV detector (model 2489). LZDO and prodrugs 3–5 were analysed by HPLC, and their purity was confirmed to be greater than 98.0%. In vitro metabolic stability analysis was conducted by a HPLC method, using stock standard solutions of LZDO and prodrugs that were prepared in water at a concentration of 30 mM. The positive inotropic effects on the myocardium of LZDO and prodrugs 3–5 in vitro were evaluated on Langendorff-perfused hearts isolated from normal Sprague-Dawley rats. A HPLC method was applied to measure the rat plasma concentrations of LZDO and prodrug 3 after intragastric administration of prodrug 3 in the rats.
Sprague-Dawley adult male rats weighing 260–320 g were anaesthetised by intraperitoneal administration of 20% urethane (1.2 g/kg). The hearts were quickly removed and placed into an ice-cold modified buffer until contractions ceased. The heart was cleaned of surrounding tissues, mounted on the aortic cannula of the Langendorff perfusion system apparatus, and perfused with oxygenated buffer (mM): NaCl 117, KCl 5.7, CaCl2 1.8, MgCl2 1.7, NaHCO3 4.4, NaH2PO4 1.5, HEPES 20 and glucose 11. The buffer was equilibrated with 95% O2 and 5% CO2 and adjusted to pH 7.4 with NaOH before it entered the heart. An epicardial electrogram was registered using two stainless steel electrodes, one attached to the apex of the heart and the other to the aortic cannula. To obtain an isovolumetrically beating preparation, a latex balloon filled with water and connected by a catheter to a transducer was inserted through the left atrium into the left ventricle and inflated to provide an end-diastolic pressure between 8 and 12 mm Hg. Before each experimental protocol was initiated, the isolated hearts were set at a mean arterial pressure of 60–80 mm Hg and allowed to stabilise at 37 °C for 40–60 min. The isolated rat hearts were then perfused in sequence with 1, 10, and 100 μM of LZDO and prodrugs 3–5 in each group. A RM6240B/C four channel physiological recording instrument (Chengdu Instrument Factory, Chengdu, China) was used for continuous recording of LVSP, LVEDP, HR (derived from electrogram), +dP/dtmax and −dP/dtmax throughout the experiments. The criteria for established stability were LVDP > 50 mmHg, +dP/dtmax > 1,600 mmHg·s^−1, heart rate > 180 beats·min^−1 and normal sinus rhythm. The hearts were not studied if they had weak contractility (+dP/dtmax < 1,600 mmHg·s^−1) and severe arrhythmia. Diastolic balloon pressure was maintained at 8 mmHg. LVDP was calculated as the difference between the systolic and diastolic pressures. The results are expressed as the mean value of hemodynamic variables (n = 6). Statistical analysis was performed using SPSS for Windows (version 13.0). Data were analyzed by One-way ANOVA. […]

Cc1nc(CO)c(C)nc1CO [1a, Liguzinediol]
AUC0–t ([1]; LZDO 10 mg·kg^−1 i.g.): 16740 ± 8900 ng·h/mL
AUC0–∞ ([1]; LZDO 10 mg·kg^−1 i.g.): 17080 ± 8990 ng·h/mL
Cmax ([1]; LZDO 10 mg·kg^−1 i.g.): 8580 ± 2660 ng/mL
Tmax ([1]; LZDO 10 mg·kg^−1 i.g.): 0.29 ± 0.10 h
t1/2 ([1]; LZDO 10 mg·kg^−1 i.g.): 2.21 ± 1.11 h
AUC0–t ([1]; LZDO 20 mg·kg^−1 i.g.): 34840 ± 24640 ng·h/mL
AUC0–∞ ([1]; LZDO 20 mg·kg^−1 i.g.): 35930 ± 24080 ng·h/mL
Cmax ([1]; LZDO 20 mg·kg^−1 i.g.): 17020 ± 5500 ng/mL
Tmax ([1]; LZDO 20 mg·kg^−1 i.g.): 0.29 ± 0.10 h
t1/2 ([1]; LZDO 20 mg·kg^−1 i.g.): 2.57 ± 2.14 h
AUC0–t ([1]; LZDO 50 mg·kg^−1 i.g.): 92850 ± 64100 ng·h/mL
AUC0–∞ ([1]; LZDO 50 mg·kg^−1 i.g.): 94820 ± 66880 ng·h/mL
Cmax ([1]; LZDO 50 mg·kg^−1 i.g.): 49330 ± 10500 ng/mL
Tmax ([1]; LZDO 50 mg·kg^−1 i.g.): 0.29 ± 0.10 h
t1/2 ([1]; LZDO 50 mg·kg^−1 i.g.): 1.78 ± 0.57 h
half-life ([1]; after intragastric administration, rats): about 2 h
metabolic stability [2]: fairly stable
+dP/dtmax ([3]; 1 μM): 1,836 ± 121 mmHg/s
HR ([3]; 1 μM): 186 ± 29 beat·min^−1
−dP/dtmax ([3]; 1 μM): −1,175 ± 125 mmHg/s
∆% +dP/dtmax ([3]; 1 μM): 9.4 ± 8.1%
∆% LVDP ([3]; 1 μM): 19.4 ± 11.0%
∆% −dP/dtmax ([3]; 1 μM): 11.1 ± 10.0%
LVDP ([3]; 1 μM): 60 ± 5 ^b mmHg
+dP/dtmax ([3]; 10 μM): 2,125 ± 242 ^bc mmHg/s
HR ([3]; 10 μM): 209 ± 21 beat·min^−1
−dP/dtmax ([3]; 10 μM): −1,371 ± 186 ^bc mmHg/s
∆% +dP/dtmax ([3]; 10 μM): 26.5 ± 13.4%
∆% LVDP ([3]; 10 μM): 45.6 ± 9.0%
∆% −dP/dtmax ([3]; 10 μM): 30.3 ± 0.3%
LVDP ([3]; 10 μM): 73 ± 4 ^bd mmHg
+dP/dtmax ([3]; 100 μM): 2,702 ± 287 ^bdf mmHg/s
HR ([3]; 100 μM): 193 ± 15 beat·min^−1
−dP/dtmax ([3]; 100 μM): −1,911 ± 200 ^bdf mmHg/s
∆% +dP/dtmax ([3]; 100 μM): 60.9 ± 17.3%
∆% LVDP ([3]; 100 μM): 76.3 ± 12.3%
∆% −dP/dtmax ([3]; 100 μM): 82.0 ± 27.9%
LVDP ([3]; 100 μM): 88 ± 3 ^bdf mmHg

Source: paper PMC6270099, “Synthesis, Biological Evaluation, and Pharmacokinetic Study of Novel Liguzinediol Prodrugs” (Molecules, 2013)
